PubChem BioAssay AID1259407 (Chemical Carcinogenesis Research Information System (CCRIS), 2018)
The source made the active and inactive calls. No rule for the calls is given here.

Test system: CCRIS mutagenicity, Ames/micronucleus/aberration tests
Experiment: CCRIS mutagenicity studies
[1] = Test System: AMES SALMONELLA TYPHIMURIUM, Strain/Indicator: TA1535, Metabolic Activation: NONE, Method: STANDARD PLATE
[2] = Test System: AMES SALMONELLA TYPHIMURIUM, Strain/Indicator: TA98, Metabolic Activation: NONE, Method: STANDARD PLATE
[3] = Test System: AMES SALMONELLA TYPHIMURIUM, Strain/Indicator: TA100, Metabolic Activation: NONE, Method: STANDARD PLATE
[4] = Test System: AMES SALMONELLA TYPHIMURIUM, Strain/Indicator: TA1538, Metabolic Activation: NONE, Method: STANDARD PLATE

CCCCCCCCO
mutagenic call (Test System: AMES SALMONELLA TYPHIMURIUM, Strain/Indicator: TA98, Metabolic Activation: NONE, Method: PREINCUBATION): inactive; negative
mutagenic call (Test System: AMES SALMONELLA TYPHIMURIUM, Strain/Indicator: TA98, Metabolic Activation: RAT, LIVER, S-9, PHENOBARBITAL AND BETA-NAPHTHOFLAVONE, Method: PREINCUBATION): inactive; negative
mutagenic call (Test System: AMES SALMONELLA TYPHIMURIUM, Strain/Indicator: TA100, Metabolic Activation: NONE, Method: PREINCUBATION): inactive; negative
mutagenic call (Test System: AMES SALMONELLA TYPHIMURIUM, Strain/Indicator: TA100, Metabolic Activation: RAT, LIVER, S-9, PHENOBARBITAL AND BETA-NAPHTHOFLAVONE, Method: PREINCUBATION): inactive; negative
mutagenic call (Test System: AMES SALMONELLA TYPHIMURIUM, Strain/Indicator: TA100, Metabolic Activation: RAT, LIVER, S-9, SODIUM PHENOBARBITAL AND 5,6-BENZOFLAVONE, Method: PREINCUBATION): inactive; negative
mutagenic call (Test System: AMES SALMONELLA TYPHIMURIUM, Strain/Indicator: TA102, Metabolic Activation: NONE, Method: PREINCUBATION): inactive; negative
mutagenic call (Test System: AMES SALMONELLA TYPHIMURIUM, Strain/Indicator: TA102, Metabolic Activation: RAT, LIVER, S-9, PHENOBARBITAL AND BETA-NAPHTHOFLAVONE, Method: PREINCUBATION): inactive; negative
mutagenic call (Test System: AMES SALMONELLA TYPHIMURIUM, Strain/Indicator: TA102, Metabolic Activation: RAT, LIVER, S-9, SODIUM PHENOBARBITAL AND 5,6-BENZOFLAVONE, Method: PREINCUBATION): inactive; negative
mutagenic call (Test System: AMES SALMONELLA TYPHIMURIUM, Strain/Indicator: TA104, Metabolic Activation: NONE, Method: PREINCUBATION): inactive; negative
mutagenic call (Test System: AMES SALMONELLA TYPHIMURIUM, Strain/Indicator: TA104, Metabolic Activation: RAT, LIVER, S-9, PHENOBARBITAL AND BETA-NAPHTHOFLAVONE, Method: PREINCUBATION): inactive; negative
mutagenic call (Test System: AMES SALMONELLA TYPHIMURIUM, Strain/Indicator: TA104, Metabolic Activation: RAT, LIVER, S-9, SODIUM PHENOBARBITAL AND 5,6-BENZOFLAVONE, Method: PREINCUBATION): inactive; negative
mutagenic call (Test System: AMES SALMONELLA TYPHIMURIUM, Strain/Indicator: TA1535, Metabolic Activation: NONE, Method: PREINCUBATION): inactive; negative
mutagenic call (Test System: AMES SALMONELLA TYPHIMURIUM, Strain/Indicator: TA1535, Metabolic Activation: RAT, LIVER, S-9, PHENOBARBITAL AND BETA-NAPHTHOFLAVONE, Method: PREINCUBATION): inactive; negative
mutagenic call (Test System: AMES SALMONELLA TYPHIMURIUM, Strain/Indicator: TA1537, Metabolic Activation: NONE, Method: PREINCUBATION): inactive; negative
mutagenic call (Test System: AMES SALMONELLA TYPHIMURIUM, Strain/Indicator: TA1537, Metabolic Activation: RAT, LIVER, S-9, PHENOBARBITAL AND BETA-NAPHTHOFLAVONE, Method: PREINCUBATION): inactive; negative
mutagenic call (Test System: E. COLI, Strain/Indicator: WP2UVRA/PKM101, Metabolic Activation: NONE, Method: PREINCUBATION): inactive; negative
mutagenic call (Test System: E. COLI, Strain/Indicator: WP2UVRA/PKM101, Metabolic Activation: RAT, LIVER, S-9, PHENOBARBITAL AND BETA-NAPHTHOFLAVONE, Method: PREINCUBATION): inactive; negative
mutagenic call (Test System: E. COLI, Strain/Indicator: WP2UVRA/PKM101, Metabolic Activation: RAT, LIVER, S-9, SODIUM PHENOBARBITAL AND 5,6-BENZOFLAVONE, Method: PREINCUBATION): inactive; negative
mutagenic call (Test System: E. COLI, Strain/Indicator: WP2UVRA, Metabolic Activation: NONE, Method: PREINCUBATION): inactive; negative
mutagenic call (Test System: E. COLI, Strain/Indicator: WP2UVRA, Metabolic Activation: RAT, LIVER, S-9, PHENOBARBITAL AND BETA-NAPHTHOFLAVONE, Method: PREINCUBATION): inactive; negative

N#Cc1c(Cl)c(Cl)c(Cl)c(C#N)c1Cl
mutagenic call (End Point: IN VITRO CHROMOSOMAL ABERRATIONS, Test System: CHINESE HAMSTER OVARY CELLS, Metabolic Activation: NONE): active; positive
mutagenic call (End Point: IN VITRO CHROMOSOMAL ABERRATIONS, Test System: CHINESE HAMSTER OVARY CELLS, Metabolic Activation: RAT, LIVER, S-9, AROCLOR 1254): active; positive

CCNC(=O)N(C=O)CCN(C)C
mutagenic call [1]: active; positive

CC(Br)C(Br)CCl (centres undefined)
mutagenic call (Test System: AMES SALMONELLA TYPHIMURIUM, Strain/Indicator: TA100, Metabolic Activation: RAT, LIVER, MICROSOMES, PHENOBARBITAL, Method: PREINCUBATION): active; positive
mutagenic call (Test System: AMES SALMONELLA TYPHIMURIUM, Strain/Indicator: TA100, Metabolic Activation: RAT, LIVER, MICROSOMES, Method: PREINCUBATION): active; positive

CCOc1cc(N=Nc2ccc(N(CC)CC)cc2)ccc1N=Nc1c(S(=O)(=O)O)cc2ccc(N)cc2c1O
mutagenic call [2]: inactive; negative
mutagenic call (Test System: AMES SALMONELLA TYPHIMURIUM, Strain/Indicator: TA98, Metabolic Activation: RAT, LIVER, S-9, AROCLOR 1254, Method: STANDARD PLATE): active; positive
mutagenic call [3]: inactive; negative
mutagenic call (Test System: AMES SALMONELLA TYPHIMURIUM, Strain/Indicator: TA100, Metabolic Activation: RAT, LIVER, S-9, AROCLOR 1254, Method: STANDARD PLATE): inactive; negative
mutagenic call [4]: inactive; negative
mutagenic call (Test System: AMES SALMONELLA TYPHIMURIUM, Strain/Indicator: TA1538, Metabolic Activation: RAT, LIVER, S-9, AROCLOR 1254, Method: STANDARD PLATE): active; positive

CCCOS(=O)(=O)c1ccccc1
mutagenic call (End Point: IN VITRO MICRONUCLEUS, Test System: MOUSE LYMPHOMA L5178Y CELLS, Metabolic Activation: NONE): inactive; negative; positive only at highly/excessively cytotoxic doses
mutagenic call (End Point: IN VITRO MICRONUCLEUS, Test System: MOUSE LYMPHOMA L5178Y CELLS, Metabolic Activation: RAT, LIVER, S-9): inactive; negative; authors report results as weakly positive
mutagenic call [3]: active; positive
mutagenic call (Test System: AMES SALMONELLA TYPHIMURIUM, Strain/Indicator: TA100, Metabolic Activation: RAT, LIVER, S-9, Method: STANDARD PLATE): active; positive

O=C(NCc1ccccc1)C(Br)c1ccccc1 (centres undefined)
mutagenic call (Test System: AMES SALMONELLA TYPHIMURIUM, Strain/Indicator: TA100, Metabolic Activation: MOUSE, LIVER, S-9, AROCLOR 1254, Method: STANDARD PLATE): inactive; negative
mutagenic call [3]: inactive; negative

Cn1c2ccccc2c(=O)c2c(O)cc3c(c21)CC(C(C)(O)CCl)O3 (centres undefined)
mutagenic call [2]: active; positive
mutagenic call (Test System: AMES SALMONELLA TYPHIMURIUM, Strain/Indicator: TA98, Metabolic Activation: RAT, LIVER, S-9, PHENOBARBITAL, Method: STANDARD PLATE): active; positive
mutagenic call [3]: active; positive
mutagenic call (Test System: AMES SALMONELLA TYPHIMURIUM, Strain/Indicator: TA100, Metabolic Activation: RAT, LIVER, S-9, PHENOBARBITAL, Method: STANDARD PLATE): active; positive
mutagenic call [1]: inactive; negative
mutagenic call (Test System: AMES SALMONELLA TYPHIMURIUM, Strain/Indicator: TA1535, Metabolic Activation: RAT, LIVER, S-9, PHENOBARBITAL, Method: STANDARD PLATE): inactive; negative
mutagenic call [4]: active; positive
mutagenic call (Test System: AMES SALMONELLA TYPHIMURIUM, Strain/Indicator: TA1538, Metabolic Activation: RAT, LIVER, S-9, PHENOBARBITAL, Method: STANDARD PLATE): active; positive
mutagenic call (Test System: AMES SALMONELLA TYPHIMURIUM, Strain/Indicator: TA1978, Metabolic Activation: NONE, Method: STANDARD PLATE): active; positive
mutagenic call (Test System: AMES SALMONELLA TYPHIMURIUM, Strain/Indicator: TA1978, Metabolic Activation: RAT, LIVER, S-9, PHENOBARBITAL, Method: STANDARD PLATE): inactive; negative

CC(=O)N(N=O)c1ccc2c(c1)Cc1ccccc1-2
mutagenic call (Test System: CHINESE HAMSTER OVARY, Strain/Indicator: CHO/6-THIOGUANINE (HGPRT), Metabolic Activation: NONE, Method: STANDARD PLATE): active; positive
mutagenic call (Test System: CHINESE HAMSTER OVARY, Strain/Indicator: CHO/OUABAIN (HGPRT), Metabolic Activation: NONE, Method: STANDARD PLATE): active; positive
